According to patent US11008286B2, “Amino mercaptan compound and preparation method therefor and use thereof in protection against radiation” (Institute of Radiation Medicine Chinese Academy of Medical …, priority 2016, dated 2021):
Structures can show the parent of a compound that is named as a salt. Where two headings read alike, the source gives them in different places. Where a SMILES comes first, the peptide text is derived from it. [ ]: non-standard residue; d: D form.

What was measured:
C57 male mice [1] = assay: Example G: effect of stereoisomerism on survival rate of mice under 7.5Gy irradiation; assay type: in vivo; details: 200 mg/kg IP 30 min before irradiation; for deaths: 9 mice per group
Source text: Laboratory animals: C57 male mice, 19-21 g, purchased from Beijing HFK Bioscience Co. Ltd., license number SCXK (Beijing), 9 mice in each group.

C57 male mice [2] = assay type: in vivo; details: no irradiation, 30-day
Method: Administration and grouping: Each group was intraperitoneally injected with one corresponding dose of amifostine. • Each group was intraperitoneally injected with one corresponding dose of Example 17 (IP).
The 30-day survival rate of mice in each group was recorded.

C57 male mice [3] = details: for survival rates compared with amifostine: absorbed dose 6.8Gy and 7.2Gy
Method: Laboratory animals: C57 male mice, 8-10 weeks old, 20-22 g, were divided into 4 groups, 5 or 10 or 15 or 20 or 25 mice in each group.
Observation index: The death and weight of the mice were recorded, and the survival rate was calculated on the 30th day.

C57BL/6 mice = assay: Example A: 30-day survival of mice after whole-body 137Cs γ-ray irradiation; assay type: in vivo; details: 200 mg/kg intraperitoneally
Method: Material: The gamma ray irradiation device is a ^137Cs irradiator, with a dose rate of 0.7Gy/min. C57BL/6 mice, male, weighing 21-22 g, purchased from Beijing HFK Bioscience Co. Ltd., certificate number SCXK (Beijing) 2014-0004, grouped as: no irradiation group, irradiation and blank solvent group, irradiation and administration group, with 5 mice in each group.
The 30-day survival of the mice in each group was observed, the survival rates were calculated, the body weights were followed, and the organs and white blood cells of mice in each group were compared after 30 days.
Results: At the same administration dose of the four compounds (200 mg/kg, one dose at 24 hours before irradiation and one dose at 30 minutes before irradiation), one-time whole body irradiation with 6.8Gy, 7.2Gy and 7.5Gy ^137Cs gamma rays was performed, respectively, compared with the radiation and blank solvent group. The 30-day survival rate of mice was 100% when compound 1 was used in the cases of irradiations of 6.8Gy and 7.2Gy, respectively. The effects of normal control group and compound 1, compound 2, compound 3 and compound 4 on organs and leukocytes in mice 30 days after irradiation with 7.2Gy are shown in FIG. 4. The effects of normal control group and compound 1 on organs and leukocytes in mice 30 days after irradiation with 6.8Gy and 7.5Gy, respectively, are shown in FIGS. 2 and 6.

[4] = 6.8Gy, 200 mpk IP 30 min before irradiation, day 30
[5] = 7.5Gy, 400 mpk IP 90 min before irradiation
[6] = 7.5Gy, 800 mpk IP 90 min before irradiation
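Wherever survival rates compared with amifostine is given: mice aged 8-10 weeks, weighing 20-22 g, with deaths logged and survival rate computed on day 30.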

SMILES | Survival number/Test number (C57 male mice [1]) | deaths (C57 male mice [1]) | Survival number/Test number (C57 male mice [3]; 7.2Gy, 200 mpk IP, day 30) | Survival rate (C57 male mice [3]; 7.2Gy, 200 mpk IP, day 30) [%] | survival rates compared with amifostine (C57 male mice [3]) | Survival rate (C57 male mice [1]) | also measured
N[C@@H](CS)C(=O)O [L-Cys, L-cysteine, reference compound] | 1/9 | (8 deaths) | – | – | – | – | –
CNC(=O)C(CS)NC(=O)C(CS)NC (racemic) [Example 19, 3-mercapto-N-(3-mercapto-1-(methylamino)-1-oxopropan-2-yl)-2-(methylamino) propionamide trifluoroacetate] | 2/9 | (7 deaths) | – | – | – | – | –
N[C@H](CS)C(=O)O [D-Cys, D-cysteine, reference compound] | 0/9 | (9 deaths) | – | – | – | – | –
NC(=O)[C@H](CS)NC(=O)[C@H](N)CS [Example 17, (S)-2-amino-N—((R)-1-amino-3-mercapto-1-oxopropan-2-yl)-3-mercaptopropanamide trifluoroacetate] (H-[dC]-Cys-NH2) | – | – | 9/10 | 90 | survival rates comparable to those using amifostine | – | Survival number/Test number (C57 male mice [2]; 400 mpk IP): 5/5; Survival number/Test number (C57 male mice [2]; 800 mpk IP): 5/5; Survival number/Test number (C57 male mice [2]; 1600 mpk IP): 4/5; Survival number/Test number (C57 male mice [3]; [4]): 5/5; Survival rate (C57 male mice [3]; [4]): 100%; Survival number/Test number (C57 male mice [3]; 7.5Gy, 200 mpk IP, day 30): 0/5; Survival rate (C57 male mice [3]; 7.5Gy, 200 mpk IP, day 30): 0%; Survival number/Test number (C57 male mice [3]; [5]): 0/5; Survival rate (C57 male mice [3]; [5]): 0%; Survival number/Test number (C57 male mice [3]; [6]): 0/5; Survival rate (C57 male mice [3]; [6]): 0%
CNC(=O)[C@@H](CS)NC(=O)[C@@H](CS)NC(=O)[C@@H](CS)NC [Example 8, (S)-3-mercapto-N—((S)-3-mercapto-1-(((S)-3-mercapto-1-(methylamino)-1-oxopropan-2-yl)amino)-1-oxopropan-2-yl)-2-(methylamino) propanamide] | – | – | 1/5 | 20 | survival rates comparable to those using amifostine | – | –
NC(=O)[C@@H](CS)NC(=O)[C@@H](N)CS [Example 18, (R)-2-amino-N—((S)-1-amino-3-mercapto-1-oxopropan-2-yl)-3-mercaptopropanamide trifluoroacetate] (H-Cys-[dC]-NH2) | – | – | 4/5 | 80 | survival rates comparable to those using amifostine | – | –
CNC(=O)[C@H](CS)NC(=O)[C@H](CS)NC [Example 2, (R)-3-mercapto-N—((R)-3-mercapto-1-(methylamino)-1-oxopropan-2-yl)-2-(methylamino) propionamide trifluoroacetate] | 4/9 | (5 deaths) | 10/15 | 66.67 | survival rates comparable to those using amifostine | approximately 44% | –
CNC(=O)C(CS)NC(=O)C(CS)NC(=O)C(CS)NC (racemic) [Example 20, (RS)-3-mercapto-N—((RS)-3-mercapto-1-(((RS)-3-mercapto-1-(methylamino)-1-oxopropan-2-yl)amino)-1-oxopropan-2-yl)-2-(methylamino) propanamide trifluoroacetate] | 1/9 | (8 deaths) | – | – | – | – | –
NC(=O)[C@H](CS)NC(=O)[C@@H](N)CS [Example 1, (R)-2-amino-N—((R)-1-amino-3-mercapto-1-oxopropan-2-yl)-3-mercaptopropanamide trifluoroacetate] (H-Cys-Cys-NH2) | 1/9 | (8 deaths) | 6/10 | 60 | survival rates comparable to those using amifostine | approximately 11% | 30-day survival rate (C57BL/6 mice; 6.8Gy 137Cs γ rays whole body): 100%; 30-day survival rate (C57BL/6 mice; 7.2Gy 137Cs γ rays whole body): 100%
NC(=O)[C@H](CS)NC(=O)[C@H](CS)NC(=O)[C@@H](N)CS [Example 3, (R)-2-amino-N—((R)-1-(((R)-1-amino-3-mercapto-1-oxopropan-2-yl)amino)-3-mercapto-1-oxopropan-2-yl)-3-mercaptopropanamide trifluoroacetate] (H-Cys-Cys-Cys-NH2) | 2/9 | (7 deaths) | 10/15 | 66.67 | survival rates comparable to those using amifostine | approximately 22% | –
